Measurements published in article PMC7876106 (Scientific Reports, 2021).

What was measured:
[1] = tested on: TeloDNA (HTRF assay) (DNA, G4) TTAGGGTTAGGGTTAGGGTTAGGG; experiment: HTRF, disruption of TRF2 peptide complex; conditions: TRF2 GAR peptide displaced
TRF2-TERRA = experiment: HTRF assay, disruption of TERRA and TRF2 peptide interaction; format: binding; conditions: compared to BRACO-19
Experimental: Mei et al, 2020 TERRA Requires TRF2 GAR Domain
Homogenous Time Resolved Fluorescence (HTRF) assay
All material including peptide, nucleic acids and compounds were dissolved in buffer containing 20mM HEPES pH7.5 150mM KCl. To measure the direct interaction between peptide and nucleic acids, 5µL of FITC-labeled TRF2 GAR peptide was added into each 384 well with a sequential of 2-fold dilution starting from 200nM, 5µL of 10nM biotin-labeled nucleic acid was then added into the well and fixed with the peptide, 5µL of buffer was added to make each well contain 15µL solution. The plate was incubated at room temperature for 30 minutes, following by adding 5µL of streptavidin-Tb-cryptate (Cisbio, PerkinElmer) and the plate was then incubated at room temperature for another 30 minutes before measured by EnVision plate reader (330/520 nm). To measure the compound disruption on peptide and nucleic acids, 5µL of small molecule was added into each 384 well first with a sequential of 2-fold dilution starting from 5µM, followed by 5µL of 10nM nucleic acid and 100nM peptide and then the plate was incubated at room temperature for 30 minutes. The rest step was similar to the direct binding measurement assay. The curves were analyzed using Prism 8.0. […]
Total RNA was isolated as previously described by using TRIzol reagent (Invitrogen) 1. […] RNA concentration was determined by Nanodrop-2000 (ThermoFisher). […]

[2] = tested on: TERRA (unlabelled) (RNA, G4) UUAGGGUUAGGGUUAGGGUUAGGG; experiment: circular dichroism; conditions: 150 mM KCl; 20 mM HEPES pH 7.5, 20% PEG8000, 4 °C, 10 μM RNA, mixed 1:1 molar ratio
G4 telomere DNA = experiment: ChIP with BG4 antibody for G4 telomere DNA in LOX cells; format: cell-based, human; conditions: 2 μM, 2 days
Experimental: DNA ChIP assays was performed as described previously 3 with minor modifications. Briefly, 1 x 10^7 LOX cells treated with indicated chemicals (2 µM) for 48 hrs were subject to ChIP analysis and immunoprecipitated DNA was assayed by DNA dot-blot using 32P-labeled (TTAGGG)4 or Alu probe. […]

Row | Compound | IC50 [1] [nM] | inhibition of TRF2-TERRA by HTRF (TRF2-TERRA) | binding [2] | G4 telomere DNA (BG4 ChIP) relative to PP or PDS treated cells (G4 telomere DNA)
1 | CN(C)c1ccc(Nc2c3ccc(NC(=O)CCN4CCCC4)cc3nc3cc(NC(=O)CCN4CCCC4)ccc23)cc1 [BRACO-19] | 7.00 ± 0.16 | – | – | –
2 | CCc1c(C)c2cc3nc(cc4nc(cc5c(CC)c(C)c(cc1[nH]2)n5C)C(C)=C4CCC(=O)O)C(CCC(=O)O)=C3C [NMM, N-methyl mesoporphyrin IX] | – | preferential inhibition of TRF2-TERRA | yes | significant reduction in G4 telomere DNA
